In general, IC50 refers to the concentration that inhibits the measured activity by half.

The structures appear in SMILES notation. Some results are limits rather than exact numbers.

Data on 21 compounds can be found in US12662491B2 (Redona Therapeutics, Inc., priority 2020, dated 2026).

The target in this test is T1, Zcchc11 enzyme (Homo sapiens, UniProt Q5TAX3).
T1 construct: made in house; host or cells: HEK293 cells (Zcchc11); E. coli Rosetta II (LIN28A)
T1 sequence (Q5TAX3 212-1420): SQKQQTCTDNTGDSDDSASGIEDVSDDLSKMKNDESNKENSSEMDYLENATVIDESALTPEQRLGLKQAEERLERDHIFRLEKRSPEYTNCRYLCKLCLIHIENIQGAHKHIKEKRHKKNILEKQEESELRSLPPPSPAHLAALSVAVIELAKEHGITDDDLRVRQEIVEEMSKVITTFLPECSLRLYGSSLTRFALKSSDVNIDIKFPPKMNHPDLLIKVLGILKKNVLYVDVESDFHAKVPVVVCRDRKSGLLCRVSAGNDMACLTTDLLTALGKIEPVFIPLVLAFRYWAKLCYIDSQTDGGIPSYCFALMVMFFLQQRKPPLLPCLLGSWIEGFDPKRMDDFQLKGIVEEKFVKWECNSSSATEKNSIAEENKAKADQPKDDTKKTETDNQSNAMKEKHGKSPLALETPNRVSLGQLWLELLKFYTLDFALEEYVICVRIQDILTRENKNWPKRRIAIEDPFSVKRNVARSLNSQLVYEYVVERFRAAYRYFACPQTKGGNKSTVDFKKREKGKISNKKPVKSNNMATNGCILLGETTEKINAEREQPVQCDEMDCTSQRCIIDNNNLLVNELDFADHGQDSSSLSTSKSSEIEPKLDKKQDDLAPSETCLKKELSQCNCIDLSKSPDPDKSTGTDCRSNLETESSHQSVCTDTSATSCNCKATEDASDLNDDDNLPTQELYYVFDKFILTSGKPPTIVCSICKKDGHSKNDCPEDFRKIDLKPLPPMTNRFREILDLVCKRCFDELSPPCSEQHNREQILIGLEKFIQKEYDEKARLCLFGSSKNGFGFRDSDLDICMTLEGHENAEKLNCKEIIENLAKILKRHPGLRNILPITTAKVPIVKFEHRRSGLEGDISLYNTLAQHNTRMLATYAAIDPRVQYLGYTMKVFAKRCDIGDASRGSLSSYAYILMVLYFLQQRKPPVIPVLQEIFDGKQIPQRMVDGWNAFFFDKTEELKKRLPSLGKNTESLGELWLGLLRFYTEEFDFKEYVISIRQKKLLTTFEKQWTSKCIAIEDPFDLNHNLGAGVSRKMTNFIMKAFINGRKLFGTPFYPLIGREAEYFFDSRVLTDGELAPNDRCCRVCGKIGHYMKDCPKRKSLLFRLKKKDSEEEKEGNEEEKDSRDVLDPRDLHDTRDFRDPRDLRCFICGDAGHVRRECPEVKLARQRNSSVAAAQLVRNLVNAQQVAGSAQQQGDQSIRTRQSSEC
The test can be described thus: TUTase assay (Zcchc11 assay, Lin28a-dependent polyuridylation of pre-let-7). Type of test: biochemical. To be noted: Lin28a-dependent Zcchc11 (Z11) TUTase assay; read-out: Potency Lin28a-dep Z11 IC50. The method in brief: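 LIN28A (10 nM) in pH 7.3 HEPES/KCl/MgCl2/DTT buffer was mixed with serially diluted compound, then 0.2 nM truncated human Zcchc11 and 2 nM labeled pre-let-7 were added for 30 min at room temperature. UTP (5 uM) and quench probe (4 nM) then started the reaction. Linear early rates gave IC50 values.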
Consider `O=C(O)c1cn(-c2ccc(O)cc2Cl)c2cc(N3CCC[C@@H]3COc3ccccn3)c(F)cc2c1=O` [Example 384, (R)-1-(2-chloro-4-hydroxyphenyl)-6-fluoro-4-oxo-7-(2-((pyridin-2-yloxy)methyl)pyrrolidin-1-yl)-1,4-dihydroquinoline-3-carboxylic acid], for which the 50% inhibitory concentration (IC50) was 1 to 10 µM.
For `O=C(O)c1cn(-c2ccc(O)c(F)c2)c2cc(N3CCC[C@@H]3COc3ccccn3)c(F)cc2c1=O` [Example 385, (R)-6-fluoro-1-(3-fluoro-4-hydroxyphenyl)-4-oxo-7-(2-((pyridin-2-yloxy)methyl)pyrrolidin-1-yl)-1,4-dihydroquinoline-3-carboxylic acid], the IC50 was no more than 1 µM.
The figure for `O=C(O)c1cn(-c2cc(F)ccc2Cl)c2cc(N3CCC[C@@H]3COc3ccccn3)c(F)cc2c1=O` [Example 386, (R)-1-(2-chloro-5-fluorophenyl)-6-fluoro-4-oxo-7-(2-((pyridin-2-yloxy)methyl)pyrrolidin-1-yl)-1,4-dihydroquinoline-3-carboxylic acid] is 1 to 10 µM; for `O=C(O)c1cn(-c2cc(F)ccc2F)c2cc(N3CCC[C@@H]3COc3ccccn3)c(F)cc2c1=O` [Example 387, (R)-1-(2,5-difluorophenyl)-6-fluoro-4-oxo-7-(2-((pyridin-2-yloxy)methyl)pyrrolidin-1-yl)-1,4-dihydroquinoline-3-carboxylic acid] it is 1 to 10 µM; for `O=C(O)c1cn(-c2cc(F)cc(F)c2)c2cc(N3CCC[C@@H]3COc3ccccn3)c(F)cc2c1=O` [Example 388, (R)-1-(3,5-difluorophenyl)-6-fluoro-4-oxo-7-(2-((pyridin-2-yloxy)methyl)pyrrolidin-1-yl)-1,4-dihydroquinoline-3-carboxylic acid] it is 1 to 10 µM.
For the compound `Cc1cc(C)cc(-n2cc(C(=O)O)c(=O)c3cc(F)c(N4CCC[C@@H]4COc4ccccn4)cc32)c1` [Example 389, (R)-1-(3,5-dimethylphenyl)-6-fluoro-4-oxo-7-(2-((pyridin-2-yloxy)methyl)pyrrolidin-1-yl)-1,4-dihydroquinoline-3-carboxylic acid], the IC50 lay within 1 to 10 µM.
`Cc1cccc(F)c1-n1cc(C(=O)O)c(=O)c2cc(F)c(N3CCC[C@@H]3COc3ccccn3)cc21` [Example 390, (R)-6-fluoro-1-(2-fluoro-6-methylphenyl)-4-oxo-7-(2-((pyridin-2-yloxy)methyl)pyrrolidin-1-yl)-1,4-dihydroquinoline-3-carboxylic acid]: the IC50 was 1 to 10 µM.
In the case of `Cc1cccc(-n2cc(C(=O)O)c(=O)c3cc(F)c(N4CCC[C@@H]4COc4ccccn4)cc32)c1` [Example 391, (R)-6-fluoro-4-oxo-7-(2-((pyridin-2-yloxy)methyl)pyrrolidin-1-yl)-1-(m-tolyl)-1,4-dihydroquinoline-3-carboxylic acid], the IC50 is no more than 1 µM.
The figure for `Cc1cccc(-n2cc(C(=O)O)c(=O)c3cc(F)c(N4CCC[C@@H]4COc4ccccn4)cc32)c1C` [Example 392, (R)-1-(2,3-dimethylphenyl)-6-fluoro-4-oxo-7-(2-((pyridin-2-yloxy)methyl)pyrrolidin-1-yl)-1,4-dihydroquinoline-3-carboxylic acid] is no more than 1 µM; for `Cc1ccc(F)cc1-n1cc(C(=O)O)c(=O)c2cc(F)c(N3CCC[C@@H]3COc3ccccn3)cc21` [Example 393, (R)-6-fluoro-1-(5-fluoro-2-methylphenyl)-4-oxo-7-(2-((pyridin-2-yloxy)methyl)pyrrolidin-1-yl)-1,4-dihydroquinoline-3-carboxylic acid] it is 1 to 10 µM; for `Cc1ccc(-n2cc(C(=O)O)c(=O)c3cc(F)c(N4CCC[C@@H]4COc4ccccn4)cc32)c(C)c1` [Example 394, (R)-1-(2,4-dimethylphenyl)-6-fluoro-4-oxo-7-(2-((pyridin-2-yloxy)methyl)pyrrolidin-1-yl)-1,4-dihydroquinoline-3-carboxylic acid] it is 1 to 10 µM.
On to `Cc1cc(-n2cc(C(=O)O)c(=O)c3cc(F)c(N4CCC[C@@H]4COc4ccccn4)cc32)ccc1O` [Example 395, (R)-6-fluoro-1-(4-hydroxy-3-methylphenyl)-4-oxo-7-(2-((pyridin-2-yloxy)methyl)pyrrolidin-1-yl)-1,4-dihydroquinoline-3-carboxylic acid], for which the IC50 is 1 to 10 µM.
To `Cc1cc(O)ccc1-n1cc(C(=O)O)c(=O)c2cc(F)c(N3CCC[C@@H]3COc3ccccn3)cc21` [Example 396, (R)-6-fluoro-1-(4-hydroxy-2-methylphenyl)-4-oxo-7-(2-((pyridin-2-yloxy)methyl)pyrrolidin-1-yl)-1,4-dihydroquinoline-3-carboxylic acid] belongs 1 to 10 µM; to `Cc1c(F)cccc1-n1cc(C(=O)O)c(=O)c2cc(F)c(N3CCC[C@@H]3COc3ccccn3)cc21` [Example 397, (R)-6-fluoro-1-(3-fluoro-2-methylphenyl)-4-oxo-7-(2-((pyridin-2-yloxy)methyl)pyrrolidin-1-yl)-1,4-dihydroquinoline-3-carboxylic acid], 1 to 10 µM; to `COc1ccc(Cl)c(-n2cc(C(=O)O)c(=O)c3cc(F)c(N4CCC[C@@H]4COc4ccccn4)cc32)c1` [Example 398, (R)-1-(2-chloro-5-methoxyphenyl)-6-fluoro-4-oxo-7-(2-((pyridin-2-yloxy)methyl)pyrrolidin-1-yl)-1,4-dihydroquinoline-3-carboxylic acid], 1 to 10 µM.
As to `COc1cccc(-n2cc(C(=O)O)c(=O)c3cc(F)c(N4CCC[C@@H]4COc4ccccn4)cc32)c1` [Example 399, (R)-6-fluoro-1-(3-methoxyphenyl)-4-oxo-7-(2-((pyridin-2-yloxy)methyl)pyrrolidin-1-yl)-1,4-dihydroquinoline-3-carboxylic acid], the IC50 was no more than 1 µM.
In the case of `COc1ccc(F)c(-n2cc(C(=O)O)c(=O)c3cc(F)c(N4CCC[C@@H]4COc4ccccn4)cc32)c1` [Example 400, (R)-6-fluoro-1-(2-fluoro-5-methoxyphenyl)-4-oxo-7-(2-((pyridin-2-yloxy)methyl)pyrrolidin-1-yl)-1,4-dihydroquinoline-3-carboxylic acid], the IC50 was in the range of 1 to 10 µM.
Take `COc1ccc(-n2cc(C(=O)O)c(=O)c3cc(F)c(N4CCC[C@@H]4COc4ccccn4)cc32)cc1` [Example 401, (R)-6-fluoro-1-(4-methoxyphenyl)-4-oxo-7-(2-((pyridin-2-yloxy)methyl)pyrrolidin-1-yl)-1,4-dihydroquinoline-3-carboxylic acid]: the IC50 is no more than 1 µM.
`O=C(O)c1cn(-c2cnccn2)c2cc(N3CCC[C@@H]3COc3ccccn3)c(F)cc2c1=O` [Example 402, (R)-6-fluoro-4-oxo-1-(pyrazin-2-yl)-7-(2-((pyridin-2-yloxy)methyl)pyrrolidin-1-yl)-1,4-dihydroquinoline-3-carboxylic acid]: the IC50 was 1 to 10 µM.
In the case of `O=C(O)c1cn(-c2ccccc2CO)c2cc(N3CCC[C@@H]3COc3ccccn3)c(F)cc2c1=O` [Example 403, (R)-6-fluoro-1-(2-(hydroxymethyl)phenyl)-4-oxo-7-(2-((pyridin-2-yloxy)methyl)pyrrolidin-1-yl)-1,4-dihydroquinoline-3-carboxylic acid], the IC50 lay within 1 to 10 µM.
For the compound `CCc1ccccc1-n1cc(C(=O)O)c(=O)c2cc(F)c(N3CCC[C@@H]3COc3ccccn3)cc21` [Example 404, (R)-1-(2-ethylphenyl)-6-fluoro-4-oxo-7-(2-((pyridin-2-yloxy)methyl)pyrrolidin-1-yl)-1,4-dihydroquinoline-3-carboxylic acid], the IC50 was in the range of 1 to 10 µM.
